How the values were obtained:
[1] = test system: dorsal root ganglia or dissociated neurons; assay: Dorsal root ganglia or dissociated neurons plated on laminin pattern; type: cell-based, chick; conditions: pattern of lines, PMMA substrate
Text: Biologically active molecules were stably adsorbed onto a polymeric substrate without chemical modification of the substrate and without the use of linkers. A nondegradable polymer, poly(methyl methylacrylate) (PMMA, […] thickness, Goodfellows) and a degradable polymer, such as poly(hydroxybutyrate (PHB), polycaprolactone or polycaprolactam), were used as polymeric substrates for application of a micropattern of laminin. See FIG. 2 for the general procedure. For these experiments, the polymers were compressed into thin films of 200 μm and cut to the size of coverslips. After activation, polymeric substrates were evaluated via x-ray photoelectron spectroscopy, and/or scanning electron microscopy. […] After laminin absorption, its deposition was determined by incubating the prepared slips with rabbit anti-laminin affinity isolated antibody and FITC-conjugated goat anti-rabbit IgG (see FIG. 3).
Dorsal root ganglia dissected from seven-day old chick embryos were either directly plated onto the patterned substrate or dissociated into individual neurons and plated. […]
The laminin stamped PMMA squares were rinsed with Hank's balanced saline solution and plated with dorsal root ganglia or dissociated neurons in minimal, serum-free media. The samples were incubated at 37° C. for 24 to 48 hours, imaged with a Zeiss laser scanning confocal microscope, and the images analyzed for pattern adherence. […]

[2] = test system: primary rat Schwann cells; assay: Schwann cells plated on pattern of laminin lines, orientation analysis; type: cell-based
Method: Purified primary rat Schwann cells were obtained from Prof. M. B. Bunge, University of Miami, the Miami Project to Cure Paralysis, and maintained in tissue culture flasks with a growth media consisting of Dulbecco's Modified Eagle's Medium (DMEM, Sigma), 10% v/v fetal bovine serum (Gibco), L-glutamine (2 mM, BioWhittaker), penicillin/streptomycin (P/S, 50 U/mL/50 μg/mL, BioWhittaker), 10 μg/mL bovine pituitary extract (Collaborative), and 10 μM forskolin (Sigma).
Schwann cells were rinsed with phosphate buffered saline (PBS, BioWhittaker) and incubated with trypsin ([…], Sigma) for 3 min. An equal amount of serum containing media was added to deactivate the trypsin and the cells were concentrated by centrifugation. […]
The samples were imaged on a Zeiss LSM 410 confocal laser-scanning microscope (CLSM) with a computer controlled laser scanning assembly attached to the microscope using a 20× phase contrast objective in fluorescence mode. An Omnichrome 3 line Argon/Krypton laser (488, 568, 647 nm) was used as the excitation source for double fluorescence measurements, with excitation at 488 nm and 568 nm and emission at 512 nm and 605 nm. […]
Multiple images were taken randomly per sample and analyzed by Image Pro Plus image analysis software (Media Cybernetics). […] Major and minor axes were calculated as well as the angle created by the major axis and the direction of patterning (FIG. 7). […]

Substance: laminin
- neuronal process outgrowth along the pattern [1]: most neuronal processes adhere to and grow along the lines of the laminin pattern
- orientation of Schwann cells relative to direction of laminin patterning (0°) ([2]; monolayer, ellipse fitting, FIG. 7): majority of the cells are oriented at 0°
- process outgrowth along the pattern, Schwann cells ([2]; pattern of lines, FIG. 5): most neuronal processes adhere to and grow along the lines of the laminin pattern

From patent publication US20100291181A1, “THERAPEUTIC DEVICES FOR PATTERNED CELL GROWTH” (RUTGERS, THE STATE UNIVERSITY OF NEW JERSEY, priority 2002, published 2010)
